In EP4567035A1, “NOVEL COMPOUND AS HYPOXIA-INDUCIBLE FACTOR 1(HIF-1) INHIBITOR OR VASCULAR ENDOTHELIAL GROWTH FACTOR (VEGF) INHIBITOR, AND PHARMACEUTICAL COMPOSITION COMPRISING SAME” (Nextgen Bioscience Co., Ltd., priority 2022, dated 2024):
Where two headings read alike, the source gives them in different places.

Columns and labels:
[1] = tested on: VEGF; test: Evaluation of VEGF protein secretion level (Human VEGF ELISA) in ARPE-19 cell medium under hypoxic conditions; assay type: cell-based
Summary of the method: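 Human ARPE-19 cells were pretreated 2 h with compound (0.1 nM–10 µM, in DMEM/F12 with 1% FBS), then held 24 h in hypoxia (1% O2, 5% CO2). Secreted VEGF in the supernatant was quantified by ELISA (A450). The value is the concentration range giving ≥50% VEGF reduction versus untreated control.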

[2] = biological target: T1, HIF-1α (Homo sapiens, UniProt Q16665); test: Analysis of HIF-1α protein expression (Western blot) in ARPE-19 cells under mixed hypoxic condition; assay type: cell-based; details: values marked * in the table, mixed hypoxic condition (1% oxygen + CoCl2) for 24 hours, concentration range at which HIF-1α expression is reduced by 50% vs untreated control, read-out: IC50 HIF-1α, Hypoxia(24h)
T1 construct: endogenous in cells; host or cells: ARPE-19 (ATCC CRL-2302)
Summary of the method: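 ARPE-19 cells were pretreated 16 h or 2 h with compound (0.1 nM–10 µM, serum-free DMEM/F12), then held 1 h or 24 h in mixed hypoxia (1% O2 plus CoCl2). HIF-1α was quantified by Western blot against β-actin; the concentration range giving ≥50% reduction vs untreated control was reported.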

[3] = ARPE-19 cells, pretreated 2 hours, 24 hours hypoxic conditions, secreted VEGF in medium supernatant by ELISA, concentration range reducing VEGF by 50% vs untreated control, read-out: IC50 VEGF
[4] = ARPE-19 cells, pretreated 2 hours, 24 hours hypoxic conditions, ELISA, read-out: concentration at which the secreted VEGF protein level was suppressed to less than 50%
[5] = Experimental Example 2 (HIF-1α Western blot), read-out: concentration at which the expression level of VEGF was suppressed to less than 50%

T1 sequence (Q16665 whole entry): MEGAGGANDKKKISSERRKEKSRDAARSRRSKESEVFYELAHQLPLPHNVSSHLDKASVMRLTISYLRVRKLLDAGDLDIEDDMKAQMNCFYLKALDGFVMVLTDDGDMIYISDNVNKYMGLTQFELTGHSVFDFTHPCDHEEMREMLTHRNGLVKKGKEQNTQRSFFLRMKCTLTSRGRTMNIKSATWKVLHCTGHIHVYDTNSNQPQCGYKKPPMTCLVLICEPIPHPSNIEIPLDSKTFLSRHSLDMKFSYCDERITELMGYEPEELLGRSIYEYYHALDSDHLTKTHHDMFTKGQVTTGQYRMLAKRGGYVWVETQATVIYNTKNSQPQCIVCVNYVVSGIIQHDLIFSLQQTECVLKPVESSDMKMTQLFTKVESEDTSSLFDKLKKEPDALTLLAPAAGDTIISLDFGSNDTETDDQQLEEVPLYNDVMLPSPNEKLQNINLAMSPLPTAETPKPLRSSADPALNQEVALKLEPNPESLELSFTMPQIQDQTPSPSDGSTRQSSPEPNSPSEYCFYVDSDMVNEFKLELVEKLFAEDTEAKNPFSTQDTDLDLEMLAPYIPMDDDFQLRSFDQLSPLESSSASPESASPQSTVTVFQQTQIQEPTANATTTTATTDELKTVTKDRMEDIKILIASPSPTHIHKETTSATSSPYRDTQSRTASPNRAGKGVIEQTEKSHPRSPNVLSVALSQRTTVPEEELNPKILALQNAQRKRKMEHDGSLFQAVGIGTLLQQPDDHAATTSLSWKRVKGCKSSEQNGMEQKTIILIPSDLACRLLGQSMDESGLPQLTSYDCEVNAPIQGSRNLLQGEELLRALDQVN

Compound	IC50 [1, 3] [nM]	DC50 [2] [nM]	IC50 [1, 4] [nM]	IC50 [1, 5] [nM]
Cn1cc(-c2cc(F)cc(CNC(=O)c3ncnc4nc(C5CC6CC6C5)[nH]c34)c2)cn1 (stereo not shown) [Example 78, 8-(Bicyclo[3.1.0]hexan-3-yl)-N-(3-fluoro-5-(1-methyl-1H-pyrazol-4-yl)benzyl)-7H-purine-6-carboxamide]	100 to 1000	< 100		
O=C(NCc1cc(F)cc(-c2cnn(-c3ccc(F)cc3)c2)c1)c1ncnc2nc(C3CCC(F)(F)C3)[nH]c12 (stereo not shown) [Example 80, 8-(3,3-Difluorocyclopentyl)-N-(3-fluoro-5-(1-(4-fluorophenyl)-1H-pyrazol-4-yl)benzyl)-7H-purine-6-carboxamide]	< 100	< 100		
O=C(NCc1cc(F)cc(-c2cnn(-c3cccc(F)c3)c2)c1)c1ncnc2nc(C3CCC(F)(F)C3)[nH]c12 (stereo not shown) [Example 81, 8-(3,3-Difluorocyclopentyl)-N-(3-fluoro-5-(1-(3-fluorophenyl)-1H-pyrazol-4-yl)benzyl)-7H-purine-6-carboxamide]	100 to 1000	< 100		
O=C(NCc1cc(F)cc(-c2cnn(-c3ccc(F)nc3)c2)c1)c1ncnc2nc(C3CCC(F)(F)C3)[nH]c12 (stereo not shown) [Example 82, 8-(3,3-Difluorocyclopentyl)-N-(3-fluoro-5-(1-(6-fluoropyridin-3-yl)-1H-pyrazol-4-yl)benzyl)-7H-purine-6-carboxamide]	< 100	< 100	< 100	< 100
O=C(NCc1cc(F)cc(-c2cnn(-c3cccnc3)c2)c1)c1ncnc2nc(C3CCC(F)(F)C3)[nH]c12 (stereo not shown) [Example 83, 8-(3,3-Difluorocyclopentyl)-N-(3-fluoro-5-(1-(pyridin-3-yl)-1H-pyrazol-4-yl)benzyl)-7H-purine-6-carboxamide]	< 100	< 100	< 100	< 100
O=C(NCc1cc(F)cc(-c2cnn(-c3ccc(F)cc3)c2)c1)c1ncnc2nc([C@H]3CCCO3)[nH]c12 [Example 85, (R)-N-(3-fluoro-5-(1-(4-fluorophenyl)-1H-pyrazol-4-yl)benzyl)-8-(tetrahydrofuran-2-yl)-7H-purine-6-carboxamide]	1000 to 10000	< 100		
O=C1CC[C@@H](c2nc3ncnc(C(=O)NCc4cc(F)cc(-c5cnn(-c6ccc(F)cc6)c5)c4)c3[nH]2)C1 [Example 86, (R)-N-(3-fluoro-5-(1-(4-fluorophenyl)-1H-pyrazol-4-yl)benzyl)-8-(3-oxocyclopentyl)-7H-purine-6-carboxamide]	100 to 1000	100 to 1000		
O=C(NCc1cc(F)cc(-c2cnn(-c3ccc(F)c(Cl)c3)c2)c1)c1ncnc2nc(C3CCCC3)[nH]c12 [Example 87, N-(3-(1-(3-chloro-4-fluorophenyl)-1H-pyrazol-4-yl)-5-fluorobenzyl)-8-cyclopentyl-7H-purine-6-carboxamide]	100 to 1000	< 100		
O=C1CC[C@H](c2nc3ncnc(C(=O)NCc4cc(F)cc(-c5cnn(-c6ccc(F)cc6)c5)c4)c3[nH]2)C1 [Example 88, (S)-N-(3-fluoro-5-(1-(4-fluorophenyl)-1H-pyrazol-4-yl)benzyl)-8-(3-oxocyclopentyl)-7H-purine-6-carboxamide]	100 to 1000	100 to 1000		
O=C(NCc1cc(F)cc(-c2cnn(-c3ccc(F)cc3)c2)c1)c1ncnc2nc(C3CC(F)(F)C3)[nH]c12 [Example 92, 8-(3,3-Difluorocyclobutyl)-N-(3-fluoro-5-(1-(4-fluorophenyl)-1H-pyrazol-4-yl)benzyl)-7H-purine-6-carboxamide]	100 to 1000	100 to 1000		
O=C(NCc1cc(F)cc(-c2cnn(-c3ccc(F)cc3)c2)c1)c1nccc2nc(C3CCCC3)[nH]c12 [Example 93, 2-Cyclopentyl-N-(3-fluoro-5-(1-(4-fluorophenyl)-1H-pyrazol-4-yl)benzyl)-3H-imidazo[4,5-c]pyridine-4-carboxamide]	100 to 1000	< 100		
O=C(NCc1cccc(-c2cnn(-c3ccc(F)cc3)c2)c1F)c1ncnc2nc(C3CCCC3)[nH]c12 [Example 95, 8-Cyclopentyl-N-(2-fluoro-3-(1-(4-fluorophenyl)-1H-pyrazol-4-yl)benzyl)-7H-purine-6-carboxamide]	100 to 1000	100 to 1000		
CC1(C)CC(c2nc3ncnc(C(=O)NCc4cc(F)cc(-c5cnn(-c6ccc(F)cc6)c5)c4)c3[nH]2)C1 [Example 97, 8-(3,3-Dimethylcyclobutyl)-N-(3-fluoro-5-(1-(4-fluorophenyl)-1H-pyrazol-4-yl)benzyl)-7H-purine-6-carboxamide]	100 to 1000	100 to 1000		
O=C(NCc1cc(F)cc(-c2cnn(-c3ccc(F)cc3)c2)c1)c1ncnc2nc(C3CC4(C3)CC(F)(F)C4)[nH]c12 [Example 98, 8-(6,6-Difluorospiro[3.3]heptan-2-yl)-N-(3-fluoro-5-(1-(4-fluorophenyl)-1H-pyrazol-4-yl)benzyl)-7H-purine-6-carboxamide]	> 10000	1000 to 10000		
O=C(NCc1cc(F)cc(-c2cnn(-c3ccc(F)cc3)c2)c1)c1ncnc2nc(C34CC(C3)C4)[nH]c12 [Example 99, 8-(Bicyclo[1.1.1]pentan-1-yl)-N-(3-fluoro-5-(1-(4-fluorophenyl)-1H-pyrazol-4-yl)benzyl)-7H-purine-6-carboxamide]	> 10000	1000 to 10000		
O=C(NCc1cc(F)cc(-c2cnn(-c3ccc(F)cc3)c2)c1)c1ncnc2nc(C3CC4(CCC4)C3)[nH]c12 [Example 100, N-(3-fluoro-5-(1-(4-fluorophenyl)-1H-pyrazol-4-yl)benzyl)-8-(spiro[3.3]heptan-2-yl)-7H-purine-6-carboxamide]	1000 to 10000	1000 to 10000		
O=C(NCc1cc(F)cc(-c2cnn(-c3ccc(F)cc3)c2)c1)c1ncnc2nc(C34CC(F)(C3)C4)[nH]c12 [Example 101, N-(3-fluoro-5-(1-(4-fluorophenyl)-1H-pyrazol-4-yl)benzyl)-8-(3-fluorobicyclo[1.1.1]pentan-1-yl)-7H-purine-6-carboxamide]	1000 to 10000	100 to 1000		
O=C(NCc1cc(Cl)cc(-c2cnn(-c3ccc(F)cc3)c2)c1)c1ncnc2nc(C3CCCC3)[nH]c12 [Example 104, N-(3-chloro-5-(1-(4-fluorophenyl)-1H-pyrazol-4-yl)benzyl)-8-cyclopentyl-7H-purine-6-carboxamide]	100 to 1000	< 100		

Now from value to molecule:

IC50 [1, 3] [nM]	DC50 [2] [nM]	IC50 [1, 4] [nM]	IC50 [1, 5] [nM]	Compound
> 10000	> 10000			O=C(Nc1cc(F)cc(-c2cnn(-c3ccc(F)cc3)c2)c1)c1ncnc2nc(C3CCCC3)[nH]c12 [Example 105, 8-Cyclopentyl-N-(3-fluoro-5-(1-(4-fluorophenyl)-1H-pyrazol-4-yl)phenyl)-7H-purine-6-carboxamide]
> 10000	> 10000			O=C(NCc1cc(F)cc(-c2cnn(-c3ccc(F)cc3)c2)c1)c1ncnc2nc(C3CC(C(=O)O)C3)[nH]c12 (stereo not shown) [Example 106, 3-(6-((3-Fluoro-5-(1-(4-fluorophenyl)-1H-pyrazol-4-yl)benzyl)carbamoyl)-7H-purin-8-yl)cyclobutanecarboxylic acid]
> 10000	> 10000			O=C(NCc1cc(F)cc(-c2cnn(-c3ccc(F)cc3)c2)c1)c1ccnc2nc(C3CCCC3)[nH]c12 [Example 107, 2-Cyclopentyl-N-(3-fluoro-5-(1-(4-fluorophenyl)-1H-pyrazol-4-yl)benzyl)-1H-imidazo [4,5-b] pyridine-7-carboxamide]
> 10000	> 10000			O=C(NCc1ccc(-c2cnn(-c3ccc(F)cc3)c2)cc1)c1ncnc2nc(C3CCCC3)[nH]c12 [Example 108, 8-Cyclopentyl-N-(4-(1-(4-fluorophenyl)-1H-pyrazol-4-yl)benzyl)-7H-purine-6-carboxamide]
> 10000	> 10000			O=C(NCc1ccc(-c2cnn(-c3ccc(F)cc3)c2)c(F)c1)c1ncnc2nc(C3CCCC3)[nH]c12 [Example 109, 8-Cyclopentyl-N-(3-fluoro-4-(1-(4-fluorophenyl)-1H-pyrazol-4-yl)benzyl)-7H-purine-6-carboxamide]
100 to 1000	< 100			O=C(NCc1cc(F)cc(-c2cnn(-c3ccc(F)cc3)c2)c1)c1ncnc2nc(C3CC4(CC4)C3)[nH]c12 [Example 111, N-(3-fluoro-5-(1-(4-fluorophenyl)-1H-pyrazol-4-yl)benzyl)-8-(spiro[2.3]hexan-5-yl)-7H-purine-6-carboxamide]
> 10000	> 10000			CN(Cc1cc(F)cc(-c2cnn(-c3ccc(F)cc3)c2)c1)C(=O)c1ncnc2nc(C3CCCC3)[nH]c12 [Example 112, 8-Cyclopentyl-N-(3-fluoro-5-(1-(4-fluorophenyl)-1H-pyrazol-4-yl)benzyl)-N-methyl-7H-purine-6-carboxamide]
100 to 1000	< 100			O=C(NCc1cc(F)cc(-c2cnn(-c3ccc(F)cc3)c2)c1)c1ncnc2nc(C3CC4CC4C3)[nH]c12 (stereo not shown) [Example 113, 8-(Bicyclo[3.1.0]hexan-3-yl)-N-(3-fluoro-5-(1-(4-fluorophenyl)-1H-pyrazol-4-yl)benzyl)-7H-purine-6-carboxamide]
100 to 1000	100 to 1000			O=C(NCc1cc(F)cc(-c2cnn(-c3ccc(F)cc3)c2)c1)c1ncnc2nc(C3CC4CCC3C4)[nH]c12 (stereo not shown) [Example 114, 8-(Bicyclo[2.2.1]heptan-2-yl)-N-(3-fluoro-5-(1-(4-fluorophenyl)-1H-pyrazol-4-yl)benzyl)-7H-purine-6-carboxamide]
